As a reminder, the IC50 is the concentration that gives 50% inhibition.

11 compounds from US12545673B2, “Imidazopyridine derivative and pharmaceutical composition comprising same as active ingredient” (TSD LIFE SCIENCES CO., LTD., priority 2019, dated 2026) can be followed below.

Assay [1] deals with human breast cancer cell line MDA-MB-231. Kind of assay: Cancer cell proliferation inhibitory activity evaluation 1 (CCK-8), MDA-MB-231. In kind it is cell-based. The method, then: (§1) In order to identify whether the compound has anticancer activity, the human breast cancer cell line MDA-MB-231, the colorectal cancer cell line HT-29, the acute myeloid leukemia cell line U937, and the chronic myeloid leukemia cell line K562 were used. The cell line was cultured using RPMI-1640 medium containing 10% fetal bovine serum. Welgene products were used as the medium, and hyclone products were used for fetal bovine serum, and 1% of antibiotics for cell culture from Gibco were used as the culture medium.

For assay [2], the system named is acute myeloid leukemia cell line U937. Put plainly: Cancer cell proliferation inhibitory activity evaluation 1 (CCK-8), U937. It is filed as cell-based. The conditions noted are these: Homo sapiens, read-out: Cancer cell proliferation inhibitory activity U937. The method, then: as §1
Assay [3] concerns colorectal cancer cell line HT-29. Put plainly: Cancer cell proliferation inhibitory activity evaluation 1 (CCK-8), HT-29. In kind it is cell-based. The conditions noted are these: Homo sapiens, read-out: Cancer cell proliferation inhibitory activity HT29. The procedure: as §1
For assay [4], the system named is chronic myeloid leukemia cell line K562. Put plainly: Cancer cell proliferation inhibitory activity evaluation 1 (CCK-8), K562. It is filed as cell-based. The conditions noted are these: Homo sapiens, read-out: Cancer cell proliferation inhibitory activity K562. The method, then:
as §1

The subject of assay [5] is acute myeloid leukemia cell line U937. Kind of assay: Cancer cell proliferation inhibitory activity evaluation 2 (CCK-8), U937. The conditions noted are these: Homo sapiens, read-out: Cancer cell proliferation inhibitory activity U937. It is filed as cell-based.
Assay [6] concerns acute lymphoblastic leukemia cell line Jurkat. Put plainly: Cancer cell proliferation inhibitory activity evaluation 2 (CCK-8), Jurkat. It is filed as cell-based. The note with it: Homo sapiens.
In assay [7] the test system is gastric cancer cell line AGS. Kind of assay: Cancer cell proliferation inhibitory activity evaluation 2 (CCK-8), AGS. In kind it is cell-based. The note with it: Homo sapiens, read-out: Cancer cell proliferation inhibitory activity AGS.
Another assay has as its target MLK3 (Homo sapiens (Human), UniProt Q16584). Put plainly: Evaluation of inhibitory activity of enzyme units, MLK3 ([γ-33P]-ATP filter assay).
[8] abbreviates: MDA-MB-231, 10 μM, 72 hours, CCK-8, read-out: Cancer cell proliferation inhibitory activity MDAMB231.
Setting [9] is: U-937, 10 μM, 72 hours, CCK-8 (Table 2).
Where [10] appears, read: U-937, 10 μM, 72 hours, CCK-8 (Table 3).
[11] abbreviates: 10 μM, 72 hours, CCK-8, read-out: Cancer cell proliferation inhibitory activity Jurkat.

Read-outs that look alike come from different tables or passages of the source.

Sequence of MLK3 (Q16584 whole entry, looked up): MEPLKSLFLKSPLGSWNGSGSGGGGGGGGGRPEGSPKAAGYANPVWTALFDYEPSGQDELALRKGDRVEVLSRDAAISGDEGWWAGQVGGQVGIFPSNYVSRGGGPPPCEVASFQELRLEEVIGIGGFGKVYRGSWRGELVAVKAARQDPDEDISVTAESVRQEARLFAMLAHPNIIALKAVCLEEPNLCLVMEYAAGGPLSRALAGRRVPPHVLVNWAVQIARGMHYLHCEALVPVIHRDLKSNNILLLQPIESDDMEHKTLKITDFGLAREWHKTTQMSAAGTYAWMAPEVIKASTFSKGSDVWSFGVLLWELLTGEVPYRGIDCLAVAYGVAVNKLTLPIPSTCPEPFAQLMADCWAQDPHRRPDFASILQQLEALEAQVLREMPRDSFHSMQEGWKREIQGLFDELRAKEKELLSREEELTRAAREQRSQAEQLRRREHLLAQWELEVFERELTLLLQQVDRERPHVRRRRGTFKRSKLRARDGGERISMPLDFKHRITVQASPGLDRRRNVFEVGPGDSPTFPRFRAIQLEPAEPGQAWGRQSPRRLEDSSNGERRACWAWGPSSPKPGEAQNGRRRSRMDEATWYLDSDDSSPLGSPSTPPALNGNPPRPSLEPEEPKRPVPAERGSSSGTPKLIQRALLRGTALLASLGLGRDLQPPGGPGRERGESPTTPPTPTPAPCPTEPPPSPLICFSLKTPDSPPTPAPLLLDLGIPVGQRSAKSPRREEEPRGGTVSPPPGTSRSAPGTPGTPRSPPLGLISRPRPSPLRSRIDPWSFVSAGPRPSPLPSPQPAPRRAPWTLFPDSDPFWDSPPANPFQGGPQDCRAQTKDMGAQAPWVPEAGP

In the case of `CCS(=O)(=O)N1CC[C@H](Nc2c(Br)cnc3[nH]c(-c4cc(C)n(-c5cc(Cl)ccc5Cl)c4C)nc23)C1` [Example 14, 6-bromo-2-(1-(2,5-dichlorophenyl)-2,5-dimethyl-1H-pyrrol-3-yl)-N—((S)-1-(ethylsulfonyl)pyrrolidine-3-yl)-3H-imidazo[4,5-b]pyridine-7-amine], the inhibition at 10 µM in assay [1] (setting [8]) is < 10%; in assay [2] (setting [9]), 10 to 50%; in assay [3] (HT-29, 10 μM, 72 hours, CCK-8), 10 to 50%; in assay [4] (K562, 10 μM, 72 hours, CCK-8), < 10%; in assay [5] (setting [10]) it was 10 to 50%; in assay [6] (setting [11]), 10 to 50%. The inhibition at 10 µM in assay [7] (10 μM, 72 hours, CCK-8) lay within 10 to 50%. This compound gave an IC50 against MLK3 of 17 nM.
For `CCS(=O)(=O)N1CC[C@H](Nc2c(Br)cnc3[nH]c(-c4cc(C)n(-c5ccc(Cl)c(Cl)c5)c4C)nc23)C1` [Example 15, (S)-6-bromo-2-(1-(3,4-dichlorophenyl)-2,5-dimethyl-1H-pyrrol-3-yl)-N-(1-(ethylsulfonyl)pyrrolidine-3-yl)-3H-imidazo[4,5-b]pyridine-7-amine], the inhibition at 10 µM in assay [1] (MDA-MB-231, 72 h, read-out: Cancer cell proliferation inhibitory activity MDAMB231) is > 50%; in assay [2] (U-937, 72 h) it was 10 to 50%; in assay [3] (HT-29, 72 h), < 10%; in assay [4] (K562, 72 h) it was 10 to 50%; in assay [5] (U-937, 72 h), 10 to 50%; in assay [6] (72 h, read-out: Cancer cell proliferation inhibitory activity Jurkat), < 10%. For the same compound, the inhibition at 10 µM in assay [7] (72 h) lay within 10 to 50%. Also, the IC50 at MLK3 (read-out: IC50(nM) MLK3) amounted to 34 nM.
With `CCS(=O)(=O)N1CC[C@H](Nc2c(Br)cnc3[nH]c(-c4cc(C)n(-c5ccccc5Cl)c4C)nc23)C1` [Example 16, 6-bromo-2-(1-(2-chlorophenyl)-2,5-dimethyl-1H-pyrrol-3-yl)-N—((S)-1-(ethylsulfonyl)pyrrolidine-3-yl)-3H-imidazo[4,5-b]pyridine-7-amine], the inhibition at 10 µM is 10 to 50% in assay [1] (setting [8]); > 50% in assay [2] (setting [9]); 10 to 50% in assay [3] (HT-29, 10 μM, 72 hours, CCK-8); > 50% in assay [4] (K562, 10 μM, 72 hours, CCK-8); < 10% in assay [5] (setting [10]); 10 to 50% in assay [6] (setting [11]). The inhibition at 10 µM in assay [7] (10 μM, 72 hours, CCK-8) lay within 10 to 50%. At MLK3, the IC50 was found to be 11 nM.
Regarding `Cc1cc(-c2nc3c(Nc4cccc(S(N)(=O)=O)c4)c(Br)cnc3[nH]2)c(C)n1-c1c(Cl)cccc1Cl` [Example 26, 3-((6-bromo-2-(1-(2,6-dichlorophenyl)-2,5-dimethyl-1H-pyrrol-3-yl)-3H-imidazo[4,5-b]pyridine-7-yl)amino)benzenesulfonamide], the inhibition at 10 µM was 10 to 50% in assay [1] (setting [8]); 10 to 50% in assay [2] (setting [9]); 10 to 50% in assay [3] (HT-29, 10 μM, 72 hours, CCK-8); < 10% in assay [4] (K562, 10 μM, 72 hours, CCK-8); 10 to 50% in assay [5] (setting [10]); 10 to 50% in assay [6] (setting [11]). Also, the inhibition at 10 µM in assay [7] (10 μM, 72 hours, CCK-8) is 10 to 50%. The IC50 at MLK3 (read-out: IC50(nM) MLK3) is 19 nM.
As for `Cc1cc(-c2nc3c(Nc4cccc(S(N)(=O)=O)c4)c(Br)cnc3[nH]2)c(C)n1-c1ccccc1Cl` [Example 31, 3-((6-bromo-2-(1-(2-chlorophenyl)-2,5-dimethyl-1H-pyrrol-3-yl)-3H-imidazo[4,5-b]pyridine-7-yl)amino)benzenesulfonamide], the inhibition at 10 µM in assay [1] (setting [8]) was < 10%; in assay [2] (setting [9]), 10 to 50%; in assay [3] (HT-29, 10 μM, 72 hours, CCK-8), > 50%; in assay [4] (K562, 10 μM, 72 hours, CCK-8) it was 10 to 50%; in assay [5] (setting [10]), 10 to 50%; in assay [6] (setting [11]), 10 to 50%. Besides, the inhibition at 10 µM in assay [7] (10 μM, 72 hours, CCK-8) is 10 to 50%. Further, the IC50 on MLK3 (read-out: IC50(nM) MLK3) is 35 nM.
In the case of `Cc1ccc(NS(C)(=O)=O)cc1-n1c(C)cc(-c2nc3c(Nc4cccc(S(N)(=O)=O)c4)c(Br)cnc3[nH]2)c1C` [Example 33, 3-((6-bromo-2-(2,5-dimethyl-1-(2-methyl-5-(methylsulfonamido)phenyl)-1H-pyrrol-3-yl)-3H-imidazo[4,5-b]pyridine-7-yl)amino)benzenesulfonamide], the inhibition at 10 µM in assay [1] (setting [8]) is 10 to 50%; in assay [2] (setting [9]), 10 to 50%; in assay [3] (HT-29, 10 μM, 72 hours, CCK-8) it was < 10%; in assay [4] (K562, 10 μM, 72 hours, CCK-8), < 10%; in assay [5] (setting [10]), < 10%; in assay [6] (setting [11]) it was 10 to 50%. Further, in assay [7] (10 μM, 72 hours, CCK-8), the inhibition at 10 µM lay in the range of 10 to 50%. For the same compound, at MLK3 (read-out: IC50(nM) MLK3), the IC50 was found to be 38 nM.
Regarding `Cc1cc(-c2nc3c(Nc4cccc(S(N)(=O)=O)c4)c(Br)cnc3[nH]2)c(C)n1-c1cc(Cl)ccc1Cl` [Example 35, 3-((6-bromo-2-(1-(2,5-dichlorophenyl)-2,5-dimethyl-1H-pyrrol-3-yl)-3H-imidazo[4,5-b]pyridine-7-yl)amino)benzenesulfonamide], the inhibition at 10 µM is 10 to 50% in assay [1] (setting [8]); 10 to 50% in assay [2] (setting [9]); > 50% in assay [3] (HT-29, 10 μM, 72 hours, CCK-8); < 10% in assay [4] (K562, 10 μM, 72 hours, CCK-8); 10 to 50% in assay [5] (setting [10]); 10 to 50% in assay [6] (setting [11]). Further, in assay [7] (10 μM, 72 hours, CCK-8), the inhibition at 10 µM is 10 to 50%. At MLK3, half-maximal inhibition (IC50) required 46 nM.
Take `Cc1cc(-c2nc3c(Nc4cccc(S(N)(=O)=O)c4)c(Br)cnc3[nH]2)c(C)n1-c1cccc(N2CCOCC2)c1` [Example 37, 3-((6-bromo-2-(2,5-dimethyl-1-(3-morpholinophenyl)-1H-pyrrol-3-yl)-3H-imidazo[4,5-b]pyridine-7-yl)amino)benzenesulfonamide]: the inhibition at 10 µM in assay [1] (setting [8]) is > 50%; in assay [2] (setting [9]), 10 to 50%; in assay [3] (HT-29, 10 μM, 72 hours, CCK-8), > 50%; in assay [4] (K562, 10 μM, 72 hours, CCK-8), < 10%; in assay [5] (setting [10]) it was 10 to 50%; in assay [6] (setting [11]), 10 to 50%. Further, the inhibition at 10 µM in assay [7] (10 μM, 72 hours, CCK-8) is 10 to 50%. Also, the IC50 on MLK3 (read-out: IC50(nM) MLK3) amounted to 47 nM.
Regarding `Cc1cc(-c2nc3ncc(Br)c(Nc4cccc(S(N)(=O)=O)c4)c3[nH]2)c(C)n1-c1cccc(OCCN2CCOCC2)c1` [Example 38, 3-((6-bromo-2-(2,5-dimethyl-1-(3-(2-morpholinoethoxy)phenyl)-1H-pyrrol-3-yl)-1H-imidazo[4,5-b]pyridine-7-yl)amino)benzenesulfonamide], the inhibition at 10 µM in assay [1] (setting [8]) is 10 to 50%; in assay [2] (setting [9]), > 50%; in assay [3] (HT-29, 10 μM, 72 hours, CCK-8), > 50%; in assay [4] (K562, 10 μM, 72 hours, CCK-8) it was > 50%; in assay [5] (setting [10]), 10 to 50%; in assay [6] (setting [11]), > 50%. For the same compound, in assay [7] (10 μM, 72 hours, CCK-8), the inhibition at 10 µM was > 50%. Moreover, the IC50 at MLK3 (read-out: IC50(nM) MLK3) came out at 52 nM.
Take `Cc1cc(-c2nc3ncc(Br)c(Nc4cccc(S(N)(=O)=O)c4)c3[nH]2)c(C)n1-c1ccc(OCCN2CCOCC2)cc1` [Example 39, 3-((6-bromo-2-(2,5-dimethyl-1-(4-(2-morpholinoethoxy)phenyl)-1H-pyrrol-3-yl)-1H-imidazo[4,5-b]pyridine-7-yl)amino)benzenesulfonamide]: the inhibition at 10 µM in assay [1] (setting [8]) is 10 to 50%; in assay [2] (setting [9]), < 10%; in assay [3] (HT-29, 10 μM, 72 hours, CCK-8) it was 10 to 50%; in assay [4] (K562, 10 μM, 72 hours, CCK-8) it was 10 to 50%; in assay [5] (setting [10]) it was 10 to 50%; in assay [6] (setting [11]), > 50%. Also, the inhibition at 10 µM in assay [7] (10 μM, 72 hours, CCK-8) is > 50%. Further, the IC50 at MLK3 (read-out: IC50(nM) MLK3) amounted to 72 nM.
Take `Cc1cc(-c2nc3c(Nc4cccc(S(N)(=O)=O)c4)c(Br)cnc3[nH]2)c(C)n1-c1ccc(N2CCOCC2)cc1` [Example 40, 3-((6-bromo-2-(2,5-dimethyl-1-(4-morpholinophenyl)-1H-pyrrol-3-yl)-3H-imidazo[4,5-b]pyridine-7-yl)amino)benzenesulfonamide]: the inhibition at 10 µM was 10 to 50% in assay [1] (setting [8]); > 50% in assay [2] (setting [9]); > 50% in assay [3] (HT-29, 10 μM, 72 hours, CCK-8); 10 to 50% in assay [4] (K562, 10 μM, 72 hours, CCK-8); 10 to 50% in assay [5] (setting [10]); > 50% in assay [6] (setting [11]). For the same compound, the inhibition at 10 µM in assay [7] (10 μM, 72 hours, CCK-8) fell in the range of 10 to 50%. At MLK3 (read-out: IC50(nM) MLK3), the concentration for half-maximal inhibition (IC50) was 68 nM.
